Experiments:
[1] = system: Dietary obese male F344/Jcl rats; assay: Anorectic effect (food intake) in dietary obese male F344/Jcl rats; format: in vivo; settings: Rattus norvegicus, 48 h; oral, 0.5% methylcellulose suspension (5 mg/mL) at 2 mL/kg, on start day and evening of next day; food intake from initial administration to 2 days later; vs control group; read-out: Food intake inhibition rate (%)
Excerpt: Evaluation of Anorectic Effect Using Dietary Obese Male F344/Jcl Rats
Dietary obese male F344/Jcl rats (42-57-week-old) reared on a high-fat diet (Research Diets: D12451) from 5 weeks of age were used. From before the start of experiment, the rats were independently raised, a powder high-fat diet (Research Diets: D12451M) was given, tap water was orally administered for acclimation, and thereby the rats were habituated. The food intake from the evening of the day before the start of experiment to the next morning was measured, and the rats were grouped based on the food intake and the body weight of the previous day as indices. On the day of the start of experiment and in the evening of the next day, 0.5% methylcellulose solution was orally administered to the control group, and 0.5% methylcellulose suspension (5 mg/mL) of the test compound was orally administered to the compound administration group at 2 mL/kg (6 per group for both control group and compound administration group). The food intake from the initial administration to 2 days later was measured. The food intake inhibition rate of each compound administration group to the control group was calculated.

human MCHR1 [2] = target: T1, human MCHR1 (Homo sapiens, UniProt Q99705); assay: Human MCH receptor 1 (MCHR1) competitive binding assay, [125I]-MCH(4-19), CHO cell membrane fraction; settings: test compound 0.1 μM, human MCHR1-expressing CHO cell membrane, 25° C., 1 hr, read-out: Binding inhibition rate (0.1 μM)
T1 construct: expressed in transfected cells; host or cells: CHO cell clone 57 (membrane fraction)
Method: Determination of Human MCH Receptor 1 (MCHR1) Competitive Inhibitory Activity of Test Compound Using Binding Assay
Using human MCHR1(=SLC-1 receptor)-expressing CHO cell clone 57 and rat MCHR1-expressing CHO cell clone 44 described in WO01/82925, MCHR1-expressing CHO cellular membrane fractions were prepared by the following method. In phosphate buffered saline (pH 7.4) supplemented with 5 mM EDTA (ethylenediaminetetraacetic acid) were respectively suspended human and rat MCHR1-expressing CHO cells (1×10^8 cells) and centrifuged. Homogenate buffer (10 mL, 10 mM NaHCO3, 5 mM EDTA, pH 7.5, 0.5 mM PMSF (phenylmethylsulfonyl fluoride), 20 mg/L leupeptin, 4 mg/L E-64, 1 mg/L pepstatin A) was added to the pellets of the cells and, using Polytron Homogenizer, the mixture was homogenated. The supernatant obtained after centrifugation at 400×g for 10 min was further centrifuged at 100,000×g for 1 hr to give precipitate of the membrane fraction. The precipitate were suspended in 2 mL of assay buffer [20 mM Tris-HCl (pH 7.5), 5 mM EDTA, 0.5 mM PMSF, 20 mg/L leupeptin, 4 mg/L E-64, 1 mg/L pepstatin A]. The membrane fractions were suspended in assay buffer to a protein concentration of 2 mg/mL, and after dispensing, preserved at −80° C. and used upon thawing each time when in use.
The MCHR1 ligand binding inhibitory activity of the test compound was determined as follows. An MCHR1-expressing CHO cellular membrane fraction (175 μL) diluted with an assay buffer was dispensed to a 96 well polypropylene plate (3363, Corning). DMSO solution (2 μL), 100 μm cold MCH(1-19) diluted with DMSO solution (2 μL), or a test compound solution diluted with DMSO solution to various concentrations (2 μL) was added, and lastly, [^125I]-MCH(4-19) diluted with assay buffer (25 μL) was added to each well. The reaction mixture was reacted at 25° C. for 1 hr with stirring, and the reaction mixture was filtered by suction using a glass filter plate (GF/C, PerkinElmer). The filter was washed 3 times with a wash solution (300 μL, 50 mM Tris-HCl buffer, pH 7.5). The glass filter plate was dried, a liquid scintillator was added at 25 μL/well, and the residual radioactivity was measured by TopCount (PerkinElmer). The binding inhibition rate of the test compound was calculated by the following formula. Binding inhibition (%)=(radioactivity upon addition of test compound and hot MCH−radioactivity upon addition of cold MCH and hot MCH solution)/(radioactivity upon addition of DMSO solution and hot MCH−radioactivity upon addition of cold MCH and hot MCH solution)×100

human MCHR1 [3] = target: T1, human MCHR1; assay: MCH receptor 1 antagonistic activity, Ca2+ mobilization assay in human MCHR1-expressing CHO cells; format: cell-based; settings: test compound 0.1 μM; human MCHR1-expressing CHO cell; ligand MCH (4-19) peptide 20 nM; Fluo4 fluorescence; read-out: Inhibition rate (%)
Method: Measurement of MCH Receptor 1 Antagonistic Activity of Test Compound Using Ca^2+ Mobilization Assay
CHO cell (CHO dhfr^−, clone #4) expressing a recombinant human MCHR1 gene for Ca^2+ mobilization assay was prepared by us. The cell was cultured in MEMα medium [445 mL of MEMα medium without nucleic acid and added with 5 mL of Penicillin-Streptomycin (Invitrogen) and 50 mL of dialyzed fetal bovine serum]. An integrated dispensing function fluorometer (CellLux, PerkinElmer) was used for Ca^2+ mobilization assay. CHO cells were sown in a 96 well plate (type 3904, Corning) with a black plate wall and clear well bottom at a density of 20000 cells/well, and cultured in an incubator for about 24 hr at 5% CO2, 37° C. The medium was removed, and the cells were washed with phosphate buffered saline (PBS). A Ca^2+ indicator dye reagent (DOJINDO LABORATORIES, Ca screening no-wash kit Fluo4) was added at 90 μL/well, and the dye was allowed to penetrate into the cell for 30 min in an incubator at 5% CO2, 37° C. The plate was set on a plate reader, a test compound solution diluted with an assay buffer [10 mM HEPES (pH 7.4), 1× assay buffer containing 0.1% BSA (DOJINDO LABORATORIES, attached to Ca screening no-wash kit Fluo4)] or DMSO solution was added at 10 μL/well, and ligand MCH (4-19) peptide (final concentration 20 nM) diluted with assay buffer or DMSO was added at 50 μL/well, during which changes in intracellular fluorescence were measured at 2 second intervals. The antagonistic activity of the test compound was calculated and shown as an inhibition rate (%) wherein the intracellular fluorescence activity resulting from the stimulation by the addition of ligand MCH (4-19) peptide was 100% and that of the well added with DMSO solution alone was 0%.

T1 sequence (Q99705 whole entry): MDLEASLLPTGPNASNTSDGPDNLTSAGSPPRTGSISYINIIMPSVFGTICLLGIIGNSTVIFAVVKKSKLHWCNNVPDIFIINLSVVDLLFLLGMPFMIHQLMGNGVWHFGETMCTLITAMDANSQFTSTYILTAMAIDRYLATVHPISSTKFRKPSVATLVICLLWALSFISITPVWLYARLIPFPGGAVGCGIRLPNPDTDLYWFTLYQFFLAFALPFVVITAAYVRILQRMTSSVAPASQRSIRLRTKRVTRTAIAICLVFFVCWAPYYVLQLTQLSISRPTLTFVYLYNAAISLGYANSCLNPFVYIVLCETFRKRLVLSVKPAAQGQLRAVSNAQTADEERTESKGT

| SMILES | inhibition in vivo at 10 mg/kg [1] | inhibition at 0.1 µM (human MCHR1 [2]) | melting point | inhibition at 0.1 µM (human MCHR1 [3]) |
| --- | --- | --- | --- | --- |
| Cn1c(CNCC(C)(C)C)cc2cc(NC(=O)c3ccc(OC[C@@H]4CCCO4)cc3)ccc21 [Example 15, N-(2-{[(2,2-dimethylpropyl)amino]methyl}-1-methyl-1H-indol-5-yl)-4-[(2S)-tetrahydrofuran-2-ylmethoxy]benzamide acetate] | 12.7% | 96% |  |  |
| Cn1c(CNCC2CCOCC2)cc2cc(NC(=O)c3ccc(OC[C@@H]4CCCO4)cc3)ccc21 [Example 17, N-(1-methyl-2-{[(tetrahydro-2H-pyran-4-ylmethyl)amino]methyl}-1H-indol-5-yl)-4-[(2S)-tetrahydrofuran-2-ylmethoxy]benzamide] | 14.7% | 97% | 157 to 158 °C | 97% |
| Cn1c(CNCC2CCOC2)cc2cc(NC(=O)c3ccc(OC[C@@H]4CCCO4)cc3)ccc21 (stereo partly drawn) [Example 20, N-(1-methyl-2-{[(tetrahydrofuran-3-ylmethyl)amino]methyl}-1H-indol-5-yl)-4-[(2S)-tetrahydrofuran-2-ylmethoxy]benzamide] | 20.3% | 91% | 128 to 129 °C |  |
| Cc1c(NC(=O)c2ccc(OCC3CC3)cc2)ccc2c1cc(CNCC(C)(C)O)n2C [Example 50, 4-(cyclopropylmethoxy)-N-(2-{[(2-hydroxy-2-methylpropyl)amino]methyl}-1,4-dimethyl-1H-indol-5-yl)benzamide] | 26.5% | 97% | 175 to 176 °C | 97% |
| Cc1c(NC(=O)c2ccc(OC[C@@H]3CCCO3)cc2)ccc2c1cc(CN[C@H]1CC[C@](C)(O)CC1)n2C [Example 53-2, N-(2-{[(trans-4-hydroxy-4-methylcyclohexyl)amino]methyl}-1,4-dimethyl-1H-indol-5-yl)-4-[(2S)-tetrahydrofuran-2-ylmethoxy]benzamide] |  | 97% | 200 °C | 96% |
| Cc1c(NC(=O)c2ccc(OC[C@@H]3CCCO3)cc2)ccc2c1cc(CNCC1CCOCC1)n2C [Example 55, N-(1,4-dimethyl-2-{[(tetrahydro-2H-pyran-4-ylmethyl)amino]methyl}-1H-indol-5-yl)-4-[(2S)-tetrahydrofuran-2-ylmethoxy]benzamide] | 22.7% | 98% | 166 to 167 °C | 99% |
| Cc1c(NC(=O)c2ccc(OC[C@@H]3CCCO3)cc2F)ccc2c1cc(CNCC(C)(C)O)n2C [Example 60, 2-fluoro-N-(2-{[(2-hydroxy-2-methylpropyl)amino]methyl}-1,4-dimethyl-1H-indol-5-yl)-4-[(2S)-tetrahydrofuran-2-ylmethoxy]benzamide] | 19.9% | 98% | 118 °C | 97% |
| Cc1c(NC(=O)c2ccc(OC[C@@H]3CCCO3)cc2)ccc2cc(CNCC3CCOCC3)[nH]c12 [Example 70, N-(7-methyl-2-{[(tetrahydro-2H-pyran-4-ylmethyl)amino]methyl}-1H-indol-6-yl)-4-[(2S)-tetrahydrofuran-2-ylmethoxy]benzamide] |  | 95% | 161 to 162 °C |  |
| Cc1c(NC(=O)c2ccc(OC[C@@H]3CCCO3)cc2)ccc2cc(CN3CCCC3)[nH]c12 [Example 74, N-[7-methyl-2-(pyrrolidin-1-ylmethyl)-1H-indol-6-yl]-4-[(2S)-tetrahydrofuran-2-ylmethoxy]benzamide] |  | 91% | 172 to 173 °C |  |
| Cc1c(NC(=O)c2ccc(OC[C@@H]3CCCO3)cc2)ccc2cc(CN3CCC(C)(O)CC3)[nH]c12 [Example 75, N-{2-[(4-hydroxy-4-methylpiperidin-1-yl)methyl]-7-methyl-1H-indol-6-yl}-4-[(2S)-tetrahydrofuran-2-ylmethoxy]benzamide] | 17.1% | 94% | 169 °C |  |
| Cc1c(NC(=O)c2ccc(OCC3CC3)cc2)ccc2cc(CNCC(C)(C)O)n(C)c12 [Example 78, 4-(cyclopropylmethoxy)-N-(2-{[(2-hydroxy-2-methylpropyl)amino]methyl}-1,7-dimethyl-1H-indol-6-yl)benzamide] |  | 91% | 180 °C |  |
| Cc1c(NC(=O)c2ccc(OC[C@@H]3CCCO3)cc2)ccc2cc(CNCC3CCOCC3)n(C)c12 [Example 83, N-(1,7-dimethyl-2-{[(tetrahydro-2H-pyran-4-ylmethyl)amino]methyl}-1H-indol-6-yl)-4-[(2S)-tetrahydrofuran-2-ylmethoxy]benzamide] |  | 99% | 197 to 198 °C | 96% |
| Cc1c(NC(=O)c2ccc(OC[C@@H]3CCCO3)cc2)ccc2cc(CN[C@H]3CC[C@](C)(O)CC3)n(C)c12 [Example 84, N-(2-{[(trans-4-hydroxy-4-methylcyclohexyl)amino]methyl}-1,7-dimethyl-1H-indol-6-yl)-4-[(2S)-tetrahydrofuran-2-ylmethoxy]benzamide] | 12.1% | 101% | 171 to 172 °C | 97% |
| Cc1c(CNCC(C)(C)C)[nH]c2c(F)c(NC(=O)c3ccc(OC[C@@H]4CCCO4)cc3)ccc12 [Example 103, N-(2-{[(2,2-dimethylpropyl)amino]methyl}-7-fluoro-3-methyl-1H-indol-6-yl)-4-[(2S)-tetrahydrofuran-2-ylmethoxy]benzamide] |  | 100% | 159 to 160 °C |  |

Reference: patent US8642770B2, “Indole derivative” (Takeda Pharmaceutical Company Limited, priority 2010, dated 2014)
